The assay concerns the target rat brain cortical membranes ([35S]-TBPS binding). As to the kind of experiment: Steroid inhibition of [35S]-TBPS binding (radioligand displacement). Particulars: 3 nM [35S]-TBPS, in the presence of 5 μM GABA. As for the experimental part:
Steroid Inhibition of TBPS Binding
TBPS binding assays using rat brain cortical membranes in the presence of 5 μM GABA has been described (Gee et al, J. Pharmacol. Exp. Ther. 1987, 241, 346-353; Hawkinson et al, Mol. Pharmacol. 1994, 46, 977-985; Lewin, A. H et al., Mol. Pharmacol. 1989, 35, 189-194).
Briefly, cortices are rapidly removed following decapitation of carbon dioxide-anesthetized Sprague-Dawley rats (200-250 g). The cortices are homogenized in 10 volumes of ice-cold 0.32 M sucrose using a glass/teflon homogenizer and centrifuged at 1500×g for 10 min at 4° C. The resultant supernatants are centrifuged at 10,000×g for 20 min at 4° C. to obtain the P2 pellets. The P2 pellets are resuspended in 200 mM NaCl/50 mM Na—K phosphate pH 7.4 buffer and centrifuged at 10,000×g for 10 min at 4° C. This washing procedure is repeated twice and the pellets are resuspended in 10 volumes of buffer. Aliquots (100 uL) of the membrane suspensions are incubated with 3 nM [^35S]-TBPS and 5 μL aliquots of test drug dissolved in dimethyl sulfoxide (DMSO) (final 0.5%) in the presence of 5 μM GABA. The incubation is brought to a final volume of 1.0 mL with buffer. […] Following a 90 min incubation at room temp, the assays are terminated by filtration through glass fiber filters (Schleicher and Schuell No. 32) using a cell harvester (Brandel) and rinsed three times with ice-cold buffer. Filter bound radioactivity is measured by liquid scintillation spectrometry. Non-linear curve fitting of the overall data for each drug averaged for each concentration is done using Prism (GraphPad). […] The concentration of test compound producing 50% inhibition (IC50) of specific binding and the maximal extent of inhibition (Imax) are determined for the individual experiments with the same model used for the overall data and then the means±SEMs of the individual experiments are calculated.
Various compounds are or can be screened to determine their potential as modulators of [^35S]-TBPS binding in vitro. These assays are or can be performed in accordance with the above discussed procedures.
In general terms: Loss of bound radioactivity is the signal in a displacement assay; it reports binding, not function.
Turning to `C[C@@]1(O)CC[C@@]2(C)[C@H](CC[C@@H]3[C@@H]2CC[C@]2(C)[C@@H](C(=O)c4ccccc4F)CC[C@@H]32)C1` [Compound 84], the IC50 (in general, the midpoint of a concentration-inhibition curve) is above 100 nM. For the compound `C[C@@]1(O)CC[C@H]2[C@H](CC[C@@H]3[C@@H]2CC[C@]2(C)[C@@H](C(=O)c4ccccn4)CC[C@@H]32)C1` [Compound 60], the IC50 is above 100 nM. The value for `C[C@@]1(O)CC[C@@]2(C)[C@H](CC[C@@H]3[C@@H]2CC[C@]2(C)[C@@H](C(=O)c4ccccc4)CC[C@@H]32)C1` [Compound 28] was 20 to 50 nM; that for `CN(C)c1ccc(C(=O)[C@H]2CC[C@H]3[C@@H]4CC[C@H]5C[C@](C)(O)CC[C@]5(C)[C@H]4CC[C@]23C)cc1` [Compound 114] was above 100 nM; that for `COC[C@]12CC[C@@](C)(O)C[C@@H]1CC[C@H]1[C@@H]3CC[C@H](C(=O)c4ccc(OC)cc4)[C@@]3(C)CC[C@@H]12` [Compound 107] was 50 to 100 nM. `C[C@@]1(O)CC[C@@]2(C)[C@H](CC[C@@H]3[C@@H]2CC[C@]2(C)[C@@H](C(=O)c4ccc5ccccc5c4)CC[C@@H]32)C1` [Compound 18]: the IC50 was 50 to 100 nM.

With `C[C@@]1(O)CC[C@H]2[C@H](CC[C@@H]3[C@@H]2CC[C@]2(C)[C@@H](C(=O)c4cc5ccccc5o4)CC[C@@H]32)C1` [Compound 5], the IC50 is 20 to 50 nM. For `Cc1ccc(C(=O)[C@H]2CC[C@H]3[C@@H]4CC[C@@H]5C[C@](C)(O)CC[C@@H]5[C@H]4CC[C@]23C)cc1F` [Compound 41] the value was 20 to 50 nM.

Turning to `COC[C@]12CC[C@@](C)(O)C[C@@H]1CC[C@H]1[C@@H]3CC[C@H](C(=O)c4ccccc4-c4ccccc4)[C@@]3(C)CC[C@@H]12` [Compound 91], the IC50 was above 100 nM. For `C[C@@]1(O)CC[C@@]2(C)[C@@H](CC[C@@H]3[C@@H]2CC[C@]2(C)[C@@H](C(=O)c4ccc5ccccc5c4)CC[C@@H]32)C1` [Compound 14] the value was 50 to 100 nM.

Turning to `C[C@@]1(O)CC[C@H]2[C@H](CC[C@@H]3[C@@H]2CC[C@]2(C)[C@@H](C(=O)c4cnc[nH]4)CC[C@@H]32)C1` [Compound 88], the IC50 was above 100 nM. The value for `C[C@@]1(O)CC[C@@]2(C)[C@H](CC[C@@H]3[C@@H]2CC[C@]2(C)[C@@H](C(=O)c4ccccn4)CC[C@@H]32)C1` [Compound 62] was above 100 nM; that for `COc1cc(OC)cc(C(=O)[C@H]2CC[C@H]3[C@@H]4CC[C@H]5C[C@](C)(O)CC[C@]5(C)[C@H]4CC[C@]23C)c1` [Compound 13] was above 100 nM. For `Cc1cccc(C(=O)[C@H]2CC[C@H]3[C@@H]4CC[C@H]5C[C@](C)(O)CC[C@]5(C)[C@H]4CC[C@]23C)c1` [Compound 82] the value was above 100 nM; for `C[C@@]1(O)CC[C@H]2[C@H](CC[C@@H]3[C@@H]2CC[C@]2(C)[C@@H](C(=O)c4cc(F)cc(F)c4)CC[C@@H]32)C1` [Compound 136, (3,5-difluorophenyl)((3R,5R,8R,9R,10S,13S,14S,17S)-3-hydroxy-3,13-dimethylhexadecahydro-1H-cyclopenta[a]phenanthren-17-yl)methanone], 20 to 50 nM. For `COc1ccc2cc(C(=O)[C@H]3CC[C@H]4[C@@H]5CC[C@H]6C[C@](C)(O)CC[C@]6(C)[C@H]5CC[C@]34C)ccc2c1` [Compound 128] the value was above 100 nM; for `Cc1cccc(C(=O)[C@H]2CC[C@H]3[C@@H]4CC[C@@H]5C[C@](C)(O)CC[C@@H]5[C@H]4CC[C@]23C)c1` [Compound 74], 20 to 50 nM; for `C[C@@]1(O)CC[C@H]2[C@H](CC[C@@H]3[C@@H]2CC[C@]2(C)[C@@H](C(=O)c4ccsc4)CC[C@@H]32)C1` [Compound 10], below 20 nM.

In the case of `C[C@@]1(O)CC[C@H]2[C@H](CC[C@@H]3[C@@H]2CC[C@]2(C)[C@@H](C(=O)c4ccc5c(c4)OCO5)CC[C@@H]32)C1` [Compound 35], the IC50 was below 20 nM.

For `COc1ccc(C(=O)[C@H]2CC[C@H]3[C@@H]4CC[C@@H]5C[C@](C)(O)CC[C@@H]5[C@H]4CC[C@]23C)c(C)c1` [Compound 43], the IC50 is 20 to 50 nM. The value for `COc1ccc(C(=O)[C@H]2CC[C@H]3[C@@H]4CC[C@@H]5C[C@](C)(O)CC[C@]5(C)[C@H]4CC[C@]23C)cc1` [Compound 61] was above 100 nM; that for `CCc1ccc(C(=O)[C@H]2CC[C@H]3[C@@H]4CC[C@@H]5C[C@](C)(O)CC[C@]5(C)[C@H]4CC[C@]23C)cc1` [Compound 49] was below 20 nM; that for `Cn1cc(C(=O)[C@H]2CC[C@H]3[C@@H]4CC[C@@H]5C[C@](C)(O)CC[C@@H]5[C@H]4CC[C@]23C)nn1` [Compound 100] was above 100 nM.

For the compound `COC[C@]12CC[C@@](C)(O)C[C@@H]1CC[C@H]1[C@@H]3CC[C@H](C(=O)c4ccccc4OC)[C@@]3(C)CC[C@@H]12` [Compound 105], the IC50 is above 100 nM.

With `Cc1ccc(C(=O)[C@H]2CC[C@H]3[C@@H]4CC[C@@H]5C[C@](C)(O)CC[C@]5(C)[C@H]4CC[C@]23C)cc1` [Compound 89], the concentration for half-maximal inhibition (IC50) fell in the range of 50 to 100 nM. For `Cc1cc(C)cc(C(=O)[C@H]2CC[C@H]3[C@@H]4CC[C@H]5C[C@](C)(O)CC[C@]5(C)[C@H]4CC[C@]23C)c1` [Compound 135] the value was above 100 nM; for `C[C@@]1(O)CC[C@H]2[C@@H](CC[C@@H]3[C@@H]2CC[C@]2(C)[C@@H](C(=O)c4ccc5ccccc5c4)CC[C@@H]32)C1` [Compound 59], 50 to 100 nM; for `Cc1cc(C)cc(C(=O)[C@H]2CC[C@H]3[C@@H]4CC[C@@H]5C[C@](C)(O)CC[C@@H]5[C@H]4CC[C@]23C)c1` [Compound 16], below 20 nM. Consider `COc1ccccc1C(=O)[C@H]1CC[C@H]2[C@@H]3CC[C@@H]4C[C@](C)(O)CC[C@@H]4[C@H]3CC[C@]12C` [Compound 50], for which the IC50 was above 100 nM.

In the case of `CSc1ccc(C(=O)[C@H]2CC[C@H]3[C@@H]4CC[C@@H]5C[C@](C)(O)CC[C@@H]5[C@H]4CC[C@]23C)cc1` [Compound 25], the IC50 fell in the range of 20 to 50 nM. As to `COC[C@]12CC[C@@](C)(O)C[C@@H]1CC[C@H]1[C@@H]3CC[C@H](C(=O)c4cccc(C)c4)[C@@]3(C)CC[C@@H]12` [Compound 103], the IC50 is above 100 nM. Regarding `COc1ccc(C(=O)[C@H]2CC[C@H]3[C@@H]4CC[C@H]5C[C@](C)(O)CC[C@@H]5[C@H]4CC[C@]23C)cc1` [Compound 87], the IC50 was above 100 nM.

With `C[C@@]1(O)CC[C@H]2[C@H](CC[C@@H]3[C@@H]2CC[C@]2(C)[C@@H](C(=O)c4ccc(-c5ccccc5)cc4)CC[C@@H]32)C1` [Compound 44], the IC50 fell in the range of 50 to 100 nM.

With `COC[C@]12CC[C@@](C)(O)C[C@@H]1CC[C@H]1[C@@H]3CC[C@H](C(=O)c4ccc5c(c4)OCO5)[C@@]3(C)CC[C@@H]12` [Compound 94], the half-inhibitory concentration (IC50) fell in the range of 50 to 100 nM. The value for `CN(C)c1ccc(C(=O)[C@H]2CC[C@H]3[C@@H]4CC[C@H]5C[C@](C)(O)CC[C@@H]5[C@H]4CC[C@]23C)cc1` [Compound 111] was above 100 nM; that for `C[C@@]1(O)CC[C@H]2[C@H](CC[C@@H]3[C@@H]2CC[C@]2(C)[C@@H](C(=O)c4cccc(F)c4)CC[C@@H]32)C1` [Compound 56] was 20 to 50 nM. For `COc1ccc(C(=O)[C@H]2CC[C@H]3[C@@H]4CC[C@H]5C[C@](C)(O)CC[C@]5(C)[C@H]4CC[C@]23C)cc1` [Compound 76] the value was above 100 nM. As for `C[C@@]1(O)CC[C@H]2[C@H](CC[C@@H]3[C@@H]2CC[C@]2(C)[C@@H](C(=O)c4cccnc4)CC[C@@H]32)C1` [Compound 70], the IC50 was 50 to 100 nM. With `C[C@@]1(O)CC[C@@]2(C)[C@@H](CC[C@@H]3[C@@H]2CC[C@]2(C)[C@@H](C(=O)c4ccc(OC(F)(F)F)cc4)CC[C@@H]32)C1` [Compound 108], the IC50 was above 100 nM. Regarding `C[C@@]1(O)CC[C@H]2[C@H](CC[C@@H]3[C@@H]2CC[C@]2(C)[C@@H](C(=O)c4nccs4)CC[C@@H]32)C1` [Compound 2], the IC50 was above 100 nM. Take `Cn1c(C(=O)[C@H]2CC[C@H]3[C@@H]4CC[C@@H]5C[C@](C)(O)CC[C@@H]5[C@H]4CC[C@]23C)nc2ccccc21` [Compound 6]: the IC50 was above 100 nM. The value for `Cc1cc(C(=O)[C@H]2CC[C@H]3[C@@H]4CC[C@@H]5C[C@](C)(O)CC[C@]5(C)[C@H]4CC[C@]23C)ccc1F` [Compound 137] was 20 to 50 nM; that for `Cc1ccc(C(=O)[C@H]2CC[C@H]3[C@@H]4CC[C@H]5C[C@](C)(O)CC[C@]5(C)[C@H]4CC[C@]23C)cc1C` [Compound 39] was 50 to 100 nM. The value for `C[C@@]1(O)CC[C@@]2(C)[C@@H](CC[C@@H]3[C@@H]2CC[C@]2(C)[C@@H](C(=O)c4cccc(Cl)c4)CC[C@@H]32)C1` [Compound 101] was above 100 nM. As to `CCc1ccc(C(=O)[C@H]2CC[C@H]3[C@@H]4CC[C@H]5C[C@](C)(O)CC[C@]5(C)[C@H]4CC[C@]23C)cc1` [Compound 134], the IC50 is above 100 nM.
